Data reported in the supplement of paper PMC11061612.

Experiments:
[1] = test system: 22RV1 (Prostate Carcinoma); experiment: Bliss excess, mean over the matrix (fraction); higher = more synergy
Procedure, shortened: (§1)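 Cell lines in DMEM/F12 or RPMI with 10% FBS were plated in 1536-well plates, held 24 hours at 37°C, 5% CO2, then given two-drug dose matrices for 72 hours (DMSO typically 0.2%). Viability was read by CellTiter-Glo 2.0 luminescence and scaled as inhibition from 0 (vehicle wells) to 1 (blank wells). Combination Emax is the second-highest inhibition in the matrix; Bliss excess is observed combination effect minus expected EA + EB − EA·EB, EA and EB being single-agent effects.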

[2] = test system: A2780 (Ovarian Carcinoma); experiment: as above
Procedure, shortened: as §1

[3] = test system: CGTH-W-1 (Thyroid Gland Carcinoma); experiment: as above
Procedure, shortened: as §1

[4] = test system: HCC1395 (Breast Carcinoma); experiment: as above
Procedure, shortened: as §1

HCC70 (Breast Carcinoma) = experiment: as above
Procedure, shortened: as §1

[5] = test system: JHU-022 (Oral Cavity Carcinoma); experiment: as above
Procedure, shortened: as §1

[6] = test system: LU-165 (Small Cell Lung Carcinoma); experiment: as above
Procedure, shortened: as §1

[7] = test system: MDA-MB-436 (Breast Carcinoma); experiment: as above
Procedure, shortened: as §1

[8] = test system: MHH-ES-1 (Ewing's Sarcoma); experiment: as above
Procedure, shortened: as §1

[9] = test system: NCI-H1651 (Lung Adenocarcinoma); experiment: as above
Procedure, shortened: as §1

[10] = test system: NCI-H2087 (Lung Adenocarcinoma); experiment: as above
Procedure, shortened: as §1

[11] = test system: NCI-H441 (Lung Adenocarcinoma); experiment: as above
Procedure, shortened: as §1

PEO1 (Ovarian Carcinoma) [12] = experiment: as above
Procedure, shortened: as §1

[13] = test system: SK-HEP-1 (Hepatocellular Carcinoma); experiment: as above
Procedure, shortened: as §1

[14] = test system: SW620 (Colorectal Carcinoma); experiment: as above
Procedure, shortened: as §1

[15] = test system: UACC-812 (Breast Carcinoma); experiment: as above
Procedure, shortened: as §1

WM1552C (Melanoma) = experiment: as above
Procedure, shortened: as §1

[16] = test system: NCI-H1703 (Squamous Cell Lung Carcinoma); experiment: combination Emax (second highest fraction inhibited in the dose matrix, 72 h); higher = more inhibition; extreme values may be limits of the assay
Procedure, shortened: as §1

[17] = test system: NCI-H441 (Lung Adenocarcinoma); experiment: as above
Procedure, shortened: as §1

PEO1 (Ovarian Carcinoma) [18] = experiment: as above
Procedure, shortened: as §1
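For Bliss excess, mean over the matrix in this document: after 72 h of two-drug dosing.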

| Structure (SMILES) | Bliss excess [1] | Bliss excess [2] | Bliss excess [3] | Bliss excess [4] | Bliss excess (HCC70 (Breast Carcinoma)) | Bliss excess [5] | Bliss excess [6] | Bliss excess [7] | Bliss excess [8] | Bliss excess [9] | Bliss excess [10] | Bliss excess [11] | Bliss excess (PEO1 (Ovarian Carcinoma) [12]) | Bliss excess [13] | Bliss excess [14] | Bliss excess [15] | Bliss excess (WM1552C (Melanoma)) | combination Emax [16] | combination Emax [17] | combination Emax (PEO1 (Ovarian Carcinoma) [18]) |
| --- | --- | --- | --- | --- | --- | --- | --- | --- | --- | --- | --- | --- | --- | --- | --- | --- | --- | --- | --- | --- |
| N#Cc1cnc(Nc2cc(NC[C@H]3CNCCO3)c(C(F)(F)F)cn2)cn1 [SRA737] + O=c1[nH]cc(F)c(=O)[nH]1 [5-Fluorouracil] (first compound max 10 µM, 7x7, partner max 20 µM) | 0.0268 | -0.0066 | 0.0467 | -0.0584 | 0.0824 | -0.0078 | -0.082 | 0.0202 | 0.0337 | -0.0323 | -0.0122 | -0.0258 | 0.0228 | -0.122 | -0.0353 | 0.023 | 0.0347 | 0.885 | 0.381 | 0.458 |
| Cc1cc2ncnn2cc1Nc1ncc2c(n1)n(C1CCOCC1)c(=O)n2C [AZD7648] + COc1cc([C@@H]2c3cc4c(cc3[C@@H](O[C@@H]3O[C@@H]5CO[C@@H](C)O[C@H]5[C@H](O)[C@H]3O)[C@H]3COC(=O)[C@H]23)OCO4)cc(OC)c1O [Etoposide] (first compound max 10 µM, 7x7, partner max 10 µM) | 0.0583 | 0.085 | 0.0595 | -0.013 | 0.0677 | 0.0522 | -0.0132 | 0.0189 | 0.105 | 0.073 | 0.0674 | 0.0013 | 0.0461 | 0.0472 | 0.0975 | -0.0106 | 0.0922 | 0.892 | 0.449 | 0.613 |
| C[C@@H](c1ccc2nccn2c1)n1nnc2ncc(-c3cnn(C)c3)nc21 [Savolitinib] + Cc1c2c(nn1C)CSCc1cc(n(C)n1)CSc1cc(c3ccccc3c1)OCCCc1c(C(=O)O)n(C)c3c-2c(Cl)ccc13 [AZD5991] (first compound max 1 µM, 7x7, partner max 1 µM) | -0.0204 | -0.074 | -0.0315 | -0.0699 | -0.0312 | -0.0742 | -0.0046 | -0.0243 | -0.0486 | -0.0358 | 0.0097 | -0.0416 | -0.0397 | -0.0402 | -0.0537 | 0.0174 | -0.079 | 0.852 | 0.221 | 0.218 |
| Cc1cc2ncnn2cc1Nc1ncc2c(n1)n(C1CCOCC1)c(=O)n2C [AZD7648] + C=CCn1c(=O)c2cnc(Nc3ccc(N4CCN(C)CC4)cc3)nc2n1-c1cccc(C(C)(C)O)n1 [AZD1775] (first compound max 10 µM, partner max 1 µM) | -0.0214 | 0.0088 | 0.0025 | -0.0571 | 0.0731 | -0.0239 | 0.0491 | -0.0189 | -0.0116 | -0.0812 | -0.0176 | 0.0059 | 0.0164 | 0.0387 | -0.0206 | -0.0446 | -0.0111 | 0.962 | 0.444 | 0.439 |
| CN(CCO)CC[C@H](CSc1ccccc1)Nc1ccc(S(=O)(=O)NC(=O)c2ccc(N3CCC([C@@H](O)c4ccccc4-c4ccc(Cl)cc4)CC3)cc2)cc1S(=O)(=O)C(F)(F)F [AZD4320] + C[C@@H](Nc1cc(F)cc(F)c1)c1cc(C(=O)N(C)C)cc2c(=O)cc(N3CCOCC3)oc12 [AZD8186] (first compound max 1 µM, 7x7, partner max 3 µM) | -0.0076 | 0.0202 | 0.0304 | 0.0463 | 0.0803 | -0.0104 | -0.0236 | 0.0429 | 0.01 | -0.0074 | -0.0271 | -0.0528 | -0.0468 | 0.0099 | -0.0141 | 0.0063 | 0.0104 | 0.531 | 0.573 | 0.613 |
| CN(CCO)CC[C@H](CSc1ccccc1)Nc1ccc(S(=O)(=O)NC(=O)c2ccc(N3CCC([C@@H](O)c4ccccc4-c4ccc(Cl)cc4)CC3)cc2)cc1S(=O)(=O)C(F)(F)F [AZD4320] + Nc1ccn([C@@H]2O[C@H](CO)[C@@H](O)C2(F)F)c(=O)n1 [Gemcitabine] (first compound max 1 µM, 7x7, partner max 0.3 µM) | -0.0286 | -0.0321 | 0.0579 | -0.0457 | 0.103 | 0.0202 | 0.0836 | 0.0024 | 0.0486 | 0.0198 | 0.0051 | 0.0333 | -0.0368 | -0.108 | -0.009 | -0.0326 | 0.0167 | 0.915 | 0.765 | 0.607 |
| Cc1cc2ncnn2cc1Nc1ncc2c(n1)n(C1CCOCC1)c(=O)n2C [AZD7648] + CCN(CCO)CCCOc1ccc2c(Nc3cc(CC(=O)Nc4cccc(F)c4)[nH]n3)ncnc2c1 [AZD2811] (first compound max 10 µM, 7x7, partner max 1 µM) | -0.022 | 0.0122 | 0.0363 | -0.0181 | -0.0203 | 0.028 | -0.0339 | -0.0452 | 0.0263 | 0.0404 | -0.0209 | -0.0502 | -0.0141 | 0.0517 | 0.0357 | 0.0276 | 0.0025 | 0.688 | 0.309 | 0.262 |
| CN(CCO)CC[C@H](CSc1ccccc1)Nc1ccc(S(=O)(=O)NC(=O)c2ccc(N3CCC([C@@H](O)c4ccccc4-c4ccc(Cl)cc4)CC3)cc2)cc1S(=O)(=O)C(F)(F)F [AZD4320] + C=CCn1c(=O)c2cnc(Nc3ccc(N4CCN(C)CC4)cc3)nc2n1-c1cccc(C(C)(C)O)n1 [AZD1775] (first compound max 1 µM, partner max 1 µM) | -0.0487 | 0.0284 | -0.035 | -0.0345 | 0.006 | 0.032 | 0.0775 | -0.0404 | 0.0439 | 0.0154 | 0.0088 | 0.0365 | 0.0352 | -0.0191 | 0.021 | -0.0281 | 0.0085 | 0.972 | 0.552 | 0.529 |
| COc1cc2c(cc1OCCCCCOc1cc3c(cc1OC)C(=O)N1C=C(C)C[C@H]1C=N3)N=C[C@@H]1CC(C)=CN1C2=O [SG3199] + O=C(c1cc(Cc2n[nH]c(=O)c3ccccc23)ccc1F)N1CCN(C(=O)C2CC2)CC1 [Olaparib] (first compound max 0.001 µM, 7x7, partner max 10 µM) | -0.0421 | -0.0404 | -0.0332 | -0.0449 | -0.0252 | -0.0479 | -0.0532 | -0.0412 | -0.0454 | -0.0788 | -0.0224 | -0.0871 | -0.0397 | -0.0582 | -0.0303 | -0.0377 | -0.0462 | 0.0514 | 0.131 | 0.0793 |
| Cc1cc2ncnn2cc1Nc1ncc2c(n1)n(C1CCOCC1)c(=O)n2C [AZD7648] + CN(C)CCCOc1ccc(-c2ccc3ncc4c(c3c2)n(C2CCOCC2)c(=O)n4C)cn1 [AZD0156] (first compound max 10 µM, 7x7, partner max 1 µM) | -0.0334 | -0.0148 | 0.0015 | -0.0273 | -0.0122 | -0.057 | 0.0071 | -0.0147 | 0.0138 | 0.0089 | -0.0115 | -0.0016 | -0.0136 | -0.0146 | 0.0148 | 0.033 | 0.0249 | 0.521 | 0.324 | 0.184 |
| N#Cc1cnc(Nc2cc(NC[C@H]3CNCCO3)c(C(F)(F)F)cn2)cn1 [SRA737] + CCc1c2c(nc3ccc(O)cc13)-c1cc3c(c(=O)n1C2)COC(=O)[C@]3(O)CC [SN-38] (first compound max 10 µM, 7x7, partner max 0.3 µM) | -0.0792 | -0.0496 | -0.0377 | -0.0012 | -0.0249 | -0.0966 | -0.0704 | -0.031 | -0.0259 | -0.0101 | 0.0137 | -0.0258 | -0.0697 | -0.0793 | 0.0405 | -0.0309 | -0.0777 | 0.929 | 0.663 | 0.746 |
| CN(CCO)CC[C@H](CSc1ccccc1)Nc1ccc(S(=O)(=O)NC(=O)c2ccc(N3CCC([C@@H](O)c4ccccc4-c4ccc(Cl)cc4)CC3)cc2)cc1S(=O)(=O)C(F)(F)F [AZD4320] + Cc1cc2ncnn2cc1Nc1ncc2c(n1)n(C1CCOCC1)c(=O)n2C [AZD7648] (first compound max 1 µM, 7x7, partner max 10 µM) | -0.0532 | -0.0469 | -0.0436 | -0.037 | -0.01 | -0.0477 | 0.0018 | -0.0488 | -0.0097 | -0.0454 | -0.0145 | -0.043 | -0.0389 | -0.051 | -0.0309 | -0.0342 | -0.0505 | 0.322 | 0.198 | 0.386 |
| C[C@@H](c1ccc2nccn2c1)n1nnc2ncc(-c3cnn(C)c3)nc21 [Savolitinib] + CC1(C)CCC(CN2CCN(c3ccc(C(=O)NS(=O)(=O)c4ccc(NCC5CCOCC5)c([N+](=O)[O-])c4)c(Oc4cnc5[nH]ccc5c4)c3)CC2)=C(c2ccc(Cl)cc2)C1 [Venetoclax] (first compound max 1 µM, 7x7, partner max 1 µM) | -0.0952 | -0.0843 | -0.0378 | -0.0095 | -0.0361 | -0.0621 | -0.0126 | -0.0228 | -0.031 | -0.0356 | -0.0716 | -0.029 | -0.0441 | -0.0267 | -0.0727 | -0.043 | -0.0623 | 0.139 | 0.171 | 0.219 |
